Legend:
[1] = target: T1, Hepatocyte growth factor receptor (Homo sapiens, UniProt P08581); assay: Inhibition of human activated c-Met at 1 uM by PK/LDH coupled kinetic assay
[2] = target: T1, Hepatocyte growth factor receptor; assay: Inhibition of human activated c-Met by PK/LDH coupled kinetic assay

T1 sequence (P08581 whole entry): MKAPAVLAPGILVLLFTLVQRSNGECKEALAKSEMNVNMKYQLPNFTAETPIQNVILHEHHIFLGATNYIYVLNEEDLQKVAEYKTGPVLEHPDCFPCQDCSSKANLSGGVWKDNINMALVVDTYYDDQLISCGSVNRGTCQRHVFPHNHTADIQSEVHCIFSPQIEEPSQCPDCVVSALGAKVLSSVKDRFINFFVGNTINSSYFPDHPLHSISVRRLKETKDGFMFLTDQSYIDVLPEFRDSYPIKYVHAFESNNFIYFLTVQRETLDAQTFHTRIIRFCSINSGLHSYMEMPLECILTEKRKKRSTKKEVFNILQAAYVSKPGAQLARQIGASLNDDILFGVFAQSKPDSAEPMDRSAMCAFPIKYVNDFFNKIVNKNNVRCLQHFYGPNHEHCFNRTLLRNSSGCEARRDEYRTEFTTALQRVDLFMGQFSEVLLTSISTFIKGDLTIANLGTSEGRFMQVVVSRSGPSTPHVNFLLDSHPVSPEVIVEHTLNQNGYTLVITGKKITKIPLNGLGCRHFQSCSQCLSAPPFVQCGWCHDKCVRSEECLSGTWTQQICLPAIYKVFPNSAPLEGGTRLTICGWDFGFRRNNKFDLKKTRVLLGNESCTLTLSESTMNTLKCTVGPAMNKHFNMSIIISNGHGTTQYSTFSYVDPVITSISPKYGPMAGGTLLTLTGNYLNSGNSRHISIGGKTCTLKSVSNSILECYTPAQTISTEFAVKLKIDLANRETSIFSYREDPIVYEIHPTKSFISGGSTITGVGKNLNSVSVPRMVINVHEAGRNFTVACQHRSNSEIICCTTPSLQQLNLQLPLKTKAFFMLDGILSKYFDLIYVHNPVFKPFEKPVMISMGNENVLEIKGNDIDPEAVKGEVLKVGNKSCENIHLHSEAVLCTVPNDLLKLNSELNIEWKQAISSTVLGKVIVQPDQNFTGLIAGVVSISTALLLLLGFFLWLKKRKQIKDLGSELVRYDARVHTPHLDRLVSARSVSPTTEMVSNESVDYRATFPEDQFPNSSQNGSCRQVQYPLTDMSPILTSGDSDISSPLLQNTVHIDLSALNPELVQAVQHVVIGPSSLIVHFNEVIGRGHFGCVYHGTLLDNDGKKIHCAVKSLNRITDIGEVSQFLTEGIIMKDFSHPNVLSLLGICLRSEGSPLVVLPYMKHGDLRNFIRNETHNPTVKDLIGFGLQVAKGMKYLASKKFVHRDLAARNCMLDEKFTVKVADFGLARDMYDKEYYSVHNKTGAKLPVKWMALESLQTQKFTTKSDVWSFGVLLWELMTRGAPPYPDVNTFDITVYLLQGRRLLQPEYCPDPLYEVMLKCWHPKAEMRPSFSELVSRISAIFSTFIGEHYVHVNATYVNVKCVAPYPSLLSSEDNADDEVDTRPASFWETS

inhibition [1] | Ki [2] | Structure (SMILES)
2% | – | COc1cc2nccc(Oc3ccc(N)nc3)c2cc1OC
– | > 30 µM | COc1cc2nccc(Oc3ccc(NC(=O)N4CCNCC4)nc3)c2cc1OC

Reference: ChEMBL document CHEMBL1156696, “Structure activity relationships of quinoline-containing c-Met inhibitors” (Eur J Med Chem, 2008)
